The test system of this assay is ATXN2-luc. Nature of the assay: NCATS qHTS (LOPAC pilot, primary and confirmation): ATXN2-luc in S2 cells, 1536-well, Steady-Glo. It counts as cell-based, human. The following applies: for AC50 / Efficacy / Inf Activity / Log AC50 / Hill Coef / Zero Activity / Max Resp: LOPAC library screening optimization; for Curve Class: LOPAC library (1,280 compounds) screening optimization, signed sub-classes (-1.1, -2.2, -3 ...); for Efficacy / Inf Activity / Hill Coef / Zero Activity: curve-fit parameter; for Max Resp: response at highest tested concentration. Here is the method: We next performed a pilot screen assay to optimize the 1536-well qHTS using S2 cells. […] Cytotoxicity was determined using a multiplexed viability assay (CellTiter-Fluor, a fluorescence-based viability assay using Gly-Phe-7-amino-4-trifluoromethylcoumarin substrate).
CellTiter-Fluor was used to determine compound effect on cell viability, and Steady-Glo was used to measure luciferase in a multiplexed assay.
The primary assay was conducted at the NCATS NIH Chemical Genomics Center laboratory. About 4 μl of S2 cell suspension in phenol red–free DMEM was dispensed into wells of 1536-well assay plates. […] Next, SteadyGlo luciferase substrate detection reagent (3 μl) was added to each well and incubated for an additional 5 min at room temperature. Luminescence was then measured on the ViewLux imager equipped with clear filters using a 2 s exposure. All screening operations were performed on a fully integrated robotic system (Kalypsys) containing one RX-130 and two RX-90 anthropomorphic robotic arms (Stäubli). Vehicle-only plates, with DMSO being pin-transferred to columns 5 to 48, were inserted uniformly at the beginning and the end of each library in order to monitor and record any shifts in assay performance.

[1] abbreviates: Homo sapiens, logarithm of AC50 (negative values), read-out: Log AC50 (converted).
Setting [2] is: logarithm of AC50 (negative values).

The source of these data is publication PMC9356275, “A quantitative high-throughput screen identifies compounds that lower expression of the SCA2-and ALS-associated gene ATXN2” (The Journal of Biological Chemistry, 2022).

“And” between values parts separate entries of the source, which are not always exact repeats. Identical values can stand only once. Counter-ions that a name gives are not always drawn. Like-named read-outs stand apart in the source and are kept apart here.

What is called AC50 is the concentration at which the activity in the assay is half-maximal.

`CC1CNCCN1[S+](=O)([O-])c1cccc2cnccc12` (centres unmarked): the concentration at half-maximal activity (AC50) is 22.4 µM under setting [1] and 22.4 µM (Homo sapiens, read-out: AC50).

`Br.COc1cc(CC(C)N)c(OC)cc1Br` (centres unmarked): the “Curve Class” value was -2.4, the Efficacy was -57.1187 and the “Inf Activity” value is listed as -63.2991. Under setting [1], the concentration at half-maximal activity (AC50) was 15.8 µM. For the same compound, the AC50 (Homo sapiens, read-out: AC50) turned out to be 15.8 µM.

For the compound `COc1cc(C[C@@H](C)N)c(OC)cc1Br.Cl`, the Efficacy is recorded as -71.0454 and the “Inf Activity” value was -73.0357. Besides, the AC50 under setting [1] was 39.8 µM. Besides, where the note is “Homo sapiens, read-out: AC50”, the AC50 is 39.8 µM.

Consider `COc1cc(C[C@H](C)N)c(OC)cc1Br.Cl`, for which the Efficacy is -52.627 and the “Inf Activity” value is on record as -55.207. The AC50 under setting [1] was 28.2 µM. Further, the AC50 (Homo sapiens, read-out: AC50) is 28.2 µM.

As for `CC(C)NCC(O)COc1cccc2ccccc12` (racemic) [(±)-Propranolol hydrochloride], the “Curve Class” value was -2.2. Further, the AC50 under setting [1] was 14.1 µM. Further, the AC50 (Homo sapiens, read-out: AC50) came to 14.1 µM. Also, the “Log AC50” value under setting [2] is recorded as -4.6. The AC50 (read-out: AC50) came to 25.1 µM.

On to `Br.CC1C2Cc3ccc(O)cc3C1(C)CCN2CCc1ccccc1` (single isomer, unassigned; (+)) [(+)-Phenazocine hydrobromide], for which the Efficacy was -59.8542 and the “Inf Activity” value is -62.9667. The AC50 under setting [1] is 17.8 µM. In addition, the AC50 (Homo sapiens, read-out: AC50) was 17.8 µM.

Take `Br.C[C@H]1C2Cc3ccc(O)cc3[C@]1(C)CCN2CCc1ccccc1` (single isomer, unassigned; (-)) [(-)-Phenazocine hydrobromide]: the Efficacy is listed as -71.0942 and the “Inf Activity” value was -66.3244. Moreover, under setting [1], the AC50 was 35.5 µM. Moreover, the AC50 (Homo sapiens, read-out: AC50) was 35.5 µM.

Turning to `CC[C@H](O)C(C[C@H](C)N(C)C)(c1ccccc1)c1ccccc1.Cl` [(+)-alpha-Methadol hydrochloride], the Efficacy was -65.8804 and the “Inf Activity” value is recorded as -66.2609. For the same compound, the AC50 under setting [1] was 35.5 µM. For the same compound, under “Homo sapiens, read-out: AC50”, the AC50 amounted to 35.5 µM.

Turning to `CC[C@@H](O)C(C[C@@H](C)N(C)C)(c1ccccc1)c1ccccc1.Cl` [(-)-alpha-Methadol hydrochloride], the Efficacy was -53.231 and the “Inf Activity” value is given as -52.9785. The AC50 under setting [1] is 31.6 µM. For the same compound, the AC50 (Homo sapiens, read-out: AC50) was 31.6 µM.

Regarding `CC(C)NC[C@H](O)COc1cccc2ccccc12` [(S)-Propranolol hydrochloride], the “Curve Class” value is recorded as -2.2. Besides, the AC50 under setting [1] was 17.8 µM. Moreover, the AC50 (Homo sapiens, read-out: AC50) came out at 17.8 µM. For the same compound, the “Log AC50” value under setting [2] was -4.5. The AC50 (read-out: AC50) was 31.6 µM.

In the case of `Nc1ncnc2c1c(I)cn2[C@@H]1C[C@H](N)[C@@H](O)[C@H]1O` [A-134974 dihydrochloride hydrate], the “Curve Class” value is on record as -2.1. In addition, under setting [1], the AC50 is 10 µM. In addition, the AC50 (Homo sapiens, read-out: AC50) came to 10 µM. Further, the “Log AC50” value under setting [2] is recorded as -4.9. Further, the AC50 (read-out: AC50) turned out to be 12.6 µM.

On to `Clc1ccc2c(c1)C(N1CCNCC1)=Nc1ccccc1O2` [Amoxapine], for which the “Curve Class” value is on record as -2.2, the Efficacy is recorded as -60.2873 and the “Inf Activity” value is recorded as -56.594. Further, the AC50 under setting [1] is 11.2 µM. In addition, the AC50 (Homo sapiens, read-out: AC50) was 11.2 µM.

For the compound `O=C(Cc1ccc(Cl)c(Cl)c1)N1CCCCC1CN1CCCC1` (centres unmarked) [BRL 52537 hydrochloride], the Efficacy is listed as -82.8908 and the “Inf Activity” value is reported as -85.8462. In addition, the AC50 under setting [1] was 35.5 µM. Further, the AC50 (Homo sapiens, read-out: AC50) turned out to be 35.5 µM.

With `OC(CCN1CCCCC1)(c1ccccc1)C1CC2C=CC1C2` (centres unmarked) [Biperiden hydrochloride], the “Curve Class” value was -2.2. Besides, under setting [1], the AC50 was 17.8 µM. The concentration at half-maximal activity (AC50) (Homo sapiens, read-out: AC50) was 17.8 µM. In addition, the “Log AC50” value under setting [2] is -4.6. Moreover, for the setting “read-out: AC50”, the AC50 stood at 25.1 µM.

Take `CCc1cccc(N(C)C(N)=Nc2cccc3ccccc23)c1` [CNS-1102]: the “Curve Class” value is recorded as -2.2. Further, under setting [1], the concentration at half-maximal activity (AC50) was 12.6 µM. For the same compound, the AC50 (Homo sapiens, read-out: AC50) was determined as 12.6 µM. The “Log AC50” value under setting [2] is on record as -4.7. Moreover, the AC50 (read-out: AC50) turned out to be 20 µM.

`CNCCCN1c2ccccc2CCc2ccccc21` [Desipramine hydrochloride]: the “Curve Class” value is -2.2. Further, under setting [1], the AC50 was 12.6 µM. For the same compound, the AC50 (Homo sapiens, read-out: AC50) was determined as 12.6 µM. Besides, the “Log AC50” value under setting [2] was -4.85. Moreover, the AC50 (read-out: AC50) was determined as 14.1 µM.

With `CNCCC(Oc1ccc(C(F)(F)F)cc1)c1ccccc1` (centres unmarked) [Fluoxetine hydrochloride], the “Curve Class” value is -2.1. Further, the AC50 under setting [1] is 12.6 µM. Moreover, for the setting “Homo sapiens, read-out: AC50”, the AC50 stood at 12.6 µM. Also, under setting [2], the “Log AC50” value was -4.85. For the same compound, the AC50 (read-out: AC50) stood at 14.1 µM.

Consider `c1ccc(CN2CCC3(CCCc4ccccc43)CC2)cc1` [L-687,384 hydrochloride], for which the “Curve Class” value is reported as -2.2, the Efficacy was -56.3105 and the “Inf Activity” value was -51.8105. Further, under setting [1], the AC50 is 14.1 µM. In addition, where the note is “Homo sapiens, read-out: AC50”, the AC50 was found to be 14.1 µM.

For the compound `CC(=O)O[C@H]1C[C@H](O[C@H]2[C@@H](O)C[C@H](O[C@H]3[C@@H](O)C[C@H](OC4CC[C@@]5(C)C(CC[C@@H]6[C@@H]5CC[C@]5(C)[C@@H](C7=CC(=O)OC7)[C@@H](O)C[C@]65O)C4)O[C@@H]3C)O[C@@H]2C)O[C@H](C)[C@H]1O[C@@H]1O[C@H](CO)[C@@H](O)[C@H](O)[C@H]1O` (some centres unmarked) [Lanatoside B], the Efficacy is recorded as -78.0523 and the “Inf Activity” value is listed as -90.3741. The AC50 under setting [1] is 1.26 µM. In addition, for the setting “Homo sapiens, read-out: AC50”, the AC50 is 1.26 µM.

As for `CNCCC(Oc1ccc(C(F)(F)F)cc1)c1ccccc1.Cl` (centres unmarked) [MLS001076338-01], the “Curve Class” value was -3, the Efficacy is given as -91.3933, the “Hill Coef” value is listed as 3.5722 and the “Inf Activity” value is listed as -89.6057. The “Zero Activity” value is 1.7876 and the “Max Resp” value is -84.8539. Under setting [2], the “Log AC50” value is reported as -4.6. Further, for the setting “read-out: AC50”, the AC50 was 25.1 µM.

For the compound `CNCC[C@H](Oc1ccc(C(F)(F)F)cc1)c1ccccc1.Cl` [MLS002153300-01], the “Curve Class” value is -2.2, the Efficacy is -72.8775, the “Hill Coef” value is 2.1211 and the “Inf Activity” value is -81.66. Also, the “Zero Activity” value is on record as -8.7824 and the “Max Resp” value is given as -62.2424. Further, the “Log AC50” value under setting [2] is recorded as -4.45. Also, the AC50 (read-out: AC50) stood at 35.5 µM.

As to `Oc1ccc2c3c1O[C@H]1c4[nH]c5ccccc5c4C[C@@]4(O)[C@@H](C2)N(CC2CC2)CC[C@]314` [Naltrindole hydrochloride], the “Curve Class” value is given as -2.2. For the same compound, the AC50 under setting [1] was 14.1 µM. Where the note is “Homo sapiens, read-out: AC50”, the AC50 was determined as 14.1 µM. Besides, the “Log AC50” value under setting [2] is recorded as -4.75. Moreover, the concentration at half-maximal activity (AC50) (read-out: AC50) stood at 17.8 µM.

With `CNCCCC1c2ccccc2C=Cc2ccccc21` [Protriptyline hydrochloride], the Efficacy is given as -59.559 and the “Inf Activity” value was -66.4303. Moreover, the AC50 under setting [1] is 31.6 µM. Besides, under “Homo sapiens, read-out: AC50”, the AC50 was found to be 31.6 µM.

`C=C[C@H]1C[N@@]2CC[C@H]1C[C@H]2[C@H](O)c1ccnc2ccc(OC)cc12` [Quinine sulfate]: the Efficacy is listed as -70.489 and the “Inf Activity” value was -66.665. Moreover, the AC50 under setting [1] is 35.5 µM. In addition, the AC50 (Homo sapiens, read-out: AC50) was found to be 35.5 µM.

As to `CC(C)NC[C@@H](O)c1ccc(O)c(O)c1` [S(+)-Isoproterenol (+)-bitartrate], the Efficacy is -77.2877 and the “Inf Activity” value is -79.7998. In addition, the AC50 under setting [1] was 31.6 µM. For the same compound, the AC50 (Homo sapiens, read-out: AC50) stood at 31.6 µM.

With `CNCC[C@H](Oc1ccc(C(F)(F)F)cc1)c1ccccc1` [S-(+)-Fluoxetine hydrochloride], the “Curve Class” value is listed as -2.2. Under setting [1], the AC50 is 14.1 µM. In addition, for the setting “Homo sapiens, read-out: AC50”, the AC50 is 14.1 µM. Besides, the “Log AC50” value under setting [2] is given as -4.8. Also, the AC50 (read-out: AC50) was determined as 15.8 µM.

Consider `Nc1nc(=S)c2ncn([C@@H]3O[C@H](CO)[C@@H](O)[C@H]3O)c2[nH]1` [Thioguanosine], for which the Efficacy is recorded as -64.1845 and the “Inf Activity” value is -62.8466. Also, under setting [1], the half-maximal activity concentration (AC50) was 3.55 µM. For the same compound, the AC50 (Homo sapiens, read-out: AC50) was determined as 3.55 µM.

Take `CNCC[C@@H](Oc1ccccc1C)c1ccccc1` [Tomoxetine]: the “Curve Class” value is -2.2, the Efficacy was -86.2041 and the “Inf Activity” value was -86.6862. Besides, the AC50 under setting [1] is 28.2 µM. Further, the AC50 (Homo sapiens, read-out: AC50) was 28.2 µM.

Take `C[C@H](N)CN1CCc2ccc(Br)cc21` [VER-3323 hemifumarate salt]: the “Curve Class” value is recorded as -2.2. Further, the AC50 under setting [1] is 11.2 µM. Further, the AC50 (Homo sapiens, read-out: AC50) was determined as 11.2 µM. The “Log AC50” value under setting [2] was -4.8. For the same compound, for the setting “read-out: AC50”, the AC50 came to 15.8 µM.

In the case of `C[C@@H]1O[C@@H](O[C@H]2C[C@@H](O)[C@]3(CO)[C@H]4[C@H](O)C[C@]5(C)[C@@H]([C@H]6COC(=O)C6)CC[C@]5(O)[C@@H]4CC[C@]3(O)C2)[C@H](O)[C@H](O)[C@H]1O` [dihydroouabain], the “Hill Coef” value was 3.0654 and 2.7202 and 1.8851 and 1.6604.
